Experimental data from PMC6452685, “Lysyl-tRNA synthetase as a drug target in malaria and cryptosporidiosis” (Proceedings of the National Academy of Sciences of the …, 2019).
pEC50: −log10 of the molar value. Where two headings read alike, the source gives them in different places.

Assays:
[1] = tested on: Nanoluciferase-expressing C. parvum; experiment: Inhibition of Nanoluciferase expressing C. parvum growth in HCT-8 cells; assay type: cell-based, Cryptosporidium parvum; conditions: read-out: Nluc Cp EC50
Method: […] ( UW ) Inhibition of C. parvum growth and EC50 det erm i nat i ons w ere perf ormed w i t h a Na nol uci feras e-expressing C. parvum parasi t e i n HC T-8 cel l s. Oocys ts were propag ated i n cal v es (Cryptosporidium Producti on La borato ry, School o f Ani mal and Comparati ve Bi omedi cal Sci ences, Universi ty of Ari zona) and i sol ated from stool s by sucrose suspensi on and cesi um chl ori de gradi ent. HCT-8 cel ls were seeded to a 384-well plate and allowed to grow for 72 h to reach 90-100% confluence at 37 °C in 5% CO2. Oocysts were activated by 10-15 mi n i ncubat i on i n 10% bl each (0. 6% s odi um hy pochl o ri t e) at room temperature and then washed wi th DPBS. 2000 oocysts per wel l were appl ied to 384-well pl at es wi t h RPM I-1640 medi um s up pl ement ed w i th 10% ho rs e s erum and 1% pe ni ci l li n/s t rept omy ci n at the same time as compound addition. The compound and the oocysts were left in place for the full 72 h g row t h t i me. The amount of l uci feras e-induced light emission was determined by lysing the cell monol ayer, addi ng Nan o-Glo® luciferase reagent (Promega, Madison, W I , USA), and readi ng o n a n EnVi s i on M ul t il abe l Pl at e Re ade r (P e rk i n El me r, Wal t ham, M A, USA). C ont rol s i ncl ude d i nfe ct e d w e lls with no addition of inhibitors and the background was taken as wells where no C. parvum was adde d.
The per cent ag e of g row t h versus infected ce lls with no inhibitor was calculated for each concentrati on of BKI an d the hal f maxi mal effecti ve concentrati on (EC50) v al ues were determi ned by a si gmoi dal dose response wi th vari abl e sl ope usi ng GraphPad Pri sm versi on 6.07 (GraphPa d Software, La Jol l a, Cal i forni a, USA). […]

[2] = Intrinsic clearance in mouse liver microsomes; assay type: in vitro ADME
Method: 4.4 Int r ins ic C le ar ance (CLi) experiments […]
HUE50H ). The procedure was carried out as reported prev i ous l y (15). […] Immediately, at time zero, then at 3, 6, 9, 15 and 30 min an aliquot ( 50 μl) o f the i ncubati on mi x ture was remov ed and mi x ed with acetonitrile (100 μl) contai ni ng i nternal s tandard to stop the reaction. […] XLfi t software (I DBS, Guildford UK) was used to cal cul ate the exponenti al decay and consequentl y the rate cons tant (ke-1) from the rati o of peak area of tes t compou nd to i nternal s tandard at each ti me poi nt .
The rate o f i ntri nsi c cl earance (CLi ) of each test compoun d was then cal cul ated usi ng the f ol l owi ng […]
CLi (ml /mi n/g li ver) = ke-1 x V x Microsomal protein yield […]
where V (ml/mg protein) is the incubation volume/mg protein added (0.5) and microsomal protein yield is taken as being 52.5 mg protein per g liver. Verapami l (0. 5 µ M ) w as us ed as a pos i t i v e cont rol to confirm ac ceptable assay performance. […]
Cryopreserved mouse (batch MC539) and huma n (batch HU E50H) hepatocytes were supplied by ThermoFi sher Sci enti fi c, Pai sl ey, UK and Xenotech, LLC, respectively. Cryopreserved hepatocytes were rapidly thawed in a pre-heat ed w at er bat h at 37 °C before ad di ng to 50 ml of pre-warmed CHRM medi a (ThermoFi sher Sci enti fi c, Paisley, UK) and mi xed gentl y. […] […] 5 mi l li on v i abl e cel l s /ml i n s uppl emented W ME. Onl y s us pens i ons whi ch ac hi ev ed >80% pos t-thaw viability were us ed i n ex peri ment s . […]
DMSO and 0.25 million cells/ml. […]

CpKRS = CpKRS (Cryptosporidium parvum, UniProt Q5CR27); experiment: Recombinant KRS thermal shift assay, CpKRS; assay type: binding; conditions: 40 µM inhibitor
Sequence of CpKRS (Q5CR27 entry or part of it): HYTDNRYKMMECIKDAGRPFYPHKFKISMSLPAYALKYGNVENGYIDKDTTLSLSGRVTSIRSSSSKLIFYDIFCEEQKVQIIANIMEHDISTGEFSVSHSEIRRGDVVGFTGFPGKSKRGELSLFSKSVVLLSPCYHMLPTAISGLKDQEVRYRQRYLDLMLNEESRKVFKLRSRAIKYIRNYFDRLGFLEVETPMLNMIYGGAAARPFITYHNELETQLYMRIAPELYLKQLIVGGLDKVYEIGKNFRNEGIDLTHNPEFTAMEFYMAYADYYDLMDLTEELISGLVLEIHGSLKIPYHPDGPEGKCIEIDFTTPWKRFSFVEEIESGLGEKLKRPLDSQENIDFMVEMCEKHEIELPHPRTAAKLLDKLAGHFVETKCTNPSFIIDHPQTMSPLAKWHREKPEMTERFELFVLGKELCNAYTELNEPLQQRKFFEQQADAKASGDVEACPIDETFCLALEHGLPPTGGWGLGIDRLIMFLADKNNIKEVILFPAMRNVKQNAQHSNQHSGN
Method: (§1) 2.9 Recombin ant KR S thermal shift assays ( UW)
(§2) Recombi nant PfKRS1, CpKRS, and HsKRS were di l u ted to 4 µM in assay buffe r c ontaining 20 mM Tris-HC l pH 8, 200 mM NaC l , 5 mM DTT, 5 mM MgC l2 and l i gands (1 mM lysi ne; 40 µM ATP; and 40 µM inhibitors) in various combinations. Ali quot s (10 µl) were added to a 96-well PCR plate and incubated at ambi ent temperature for 15 mi n. SYPRO® Ora n g e dye (I nv itrog en) was di l uted i n ass ay buffer to a 5x concent rat i on a nd 1 0 µl was added to t he P C R pl at e t o bri ng t he fi nal as s ay v ol ume t o 20 µl. The pl at e w as s eal ed and pul s e cent ri fug ed t o cons ol i dat e t he as s ay mix t ure and remov e ai r bu bbl es .
(§3) Us i ng a StepOne Pl us RT-PCR thermal cycler (Ap plied Biosystems) to monitor fluorescence at a n excitation/emission wavelength of 300/470-570 nm, the samples were heated from 25° C to 99° C at a ramp rate of .016° C/sec. Graphpa d® P rism software (GraphPad S oftware, San Diego, CA) was used to determine melting temperatures (Tm) us i ng Bol tzmann s i g moi dal analys is .
(§4) Table S3. Thermal shift data for compounds with P fKRS1, Cp KRS a nd Hs KRS.
(§5) Com poun d Eff ects o n Lys R S M elti ng Tem pe ratu re ( ∆Tm) […]

HsKRS = molecular target: T1, HsKRS (Homo sapiens, UniProt Q15046); experiment: Recombinant KRS thermal shift assay, HsKRS; assay type: binding; conditions: 40 µM inhibitor
T1 construct: HsKRS (full-length) proteins; 6xHis (N); made in house; host or cells: E. coli Rosetta BL21(DE3), vector pAVA0421 (UW); template pET28a-KRS
T1 sequence (Q15046 whole entry): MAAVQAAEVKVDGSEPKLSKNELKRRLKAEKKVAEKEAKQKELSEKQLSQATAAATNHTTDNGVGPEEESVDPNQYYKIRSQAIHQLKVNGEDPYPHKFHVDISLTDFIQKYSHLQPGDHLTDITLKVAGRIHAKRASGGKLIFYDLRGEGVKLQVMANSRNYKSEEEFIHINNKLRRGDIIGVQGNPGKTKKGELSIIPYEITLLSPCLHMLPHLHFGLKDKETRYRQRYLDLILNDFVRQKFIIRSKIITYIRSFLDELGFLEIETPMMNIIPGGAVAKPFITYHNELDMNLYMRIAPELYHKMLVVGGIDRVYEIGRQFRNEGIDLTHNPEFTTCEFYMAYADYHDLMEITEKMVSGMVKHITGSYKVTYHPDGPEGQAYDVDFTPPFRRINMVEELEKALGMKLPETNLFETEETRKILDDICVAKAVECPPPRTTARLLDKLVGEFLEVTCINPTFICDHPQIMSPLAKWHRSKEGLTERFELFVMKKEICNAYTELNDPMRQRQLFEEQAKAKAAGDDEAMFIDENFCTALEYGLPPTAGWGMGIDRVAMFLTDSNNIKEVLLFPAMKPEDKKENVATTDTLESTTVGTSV
Method: as §1, §2, §3, §4, §5

[3] = Cryptosporidium parvum, HCT-8, C. parvum growth in HCT-8 cells

Compound	pEC50 [1, 3]	MLM CLi [2] [mL/min/g]	Microsomal stability CLint [2] [mL⋅min^−1⋅g^−1]	ΔTm at 40 µM (CpKRS; ATP + Lysine) [°C]	ΔTm at 40 µM (CpKRS; ATP) [°C]	ΔTm at 40 µM (CpKRS; Lysine) [°C]	ΔTm at 40 µM (CpKRS; no substrate) [°C]	ΔTm at 40 µM (HsKRS; ATP + Lysine) [°C]	ΔTm at 40 µM (HsKRS; ATP) [°C]	ΔTm at 40 µM (HsKRS; Lysine) [°C]	ΔTm at 40 µM (HsKRS; no substrate) [°C]	pEC50 ([1]; C. parvum growth in HCT-8 cells)
O=C(NCC1CCCCC1)c1cc(=O)c2ccccc2o1 [Compound 2]	5.92	> 50	> 50	11.7	0.7	19.3	0	-8.6	0.3	-10	-0.3	
C[C@H]1CCC[C@H](C[C@H]2Cc3cc(O)cc(O)c3C(=O)O2)O1 [Compound 1, cladosporin, reference compound]	6.15	20		14	0.1	19.5	-0.1	-8.2	0.3	-9.2	-0.1	6.17
O=C(NCC1CCCCC1)c1cc(=O)c2cc(F)ccc2o1 [Compound 3]	6.09	23		0.8	0.2	1.2	-0.2	-10.8	0.4	-8.4	-0.1	
O=C(NCC1(O)CCCCC1)c1cc(=O)c2cc(F)ccc2o1 [Compound 4]	6.85	3		11.8	0	18.4	-0.2	-7.2	-0.1	-7.4	-0.5	
O=C(NCC1(O)CCC(F)(F)CC1)c1cc(=O)c2cc(F)ccc2o1 [Compound 5]	5.60	1	1	13	-0.2	14.7	-0.5	-7.4	0.4	-7.6	0.3	
